Experimental data as given in patent US20130079345A1, “[…] ACTIVE DISUBSTITUTED TRIAZINE DERIVATIVES” (BAYER INTELLECTUAL PROPERTY GMBH, priority 2010, published 2013).

Legend:
CDK9/Cyclin K = biological target: T1, CDK9/Cyclin K (Homo sapiens, UniProt P50750); test: LanthaScreen Eu Kinase Binding Assay, CDK9/Cyclin K; settings: tracer 236, read-out: Affinity (Kd) CDK9/Cyclin K
T1 construct: purchased Invitrogen
Protocol: (§1) This protocol describes how the LanthaScreen Eu Kinase Binding Assay was performed to determine dissociation constants (Kd) of compounds of general formula (I) and CDK/Cyclin complexes. The principle behind this assay is based upon the binding and displacement of an Alexa Fluor 647-labeled tracer, which binds to the active site of kinases. Binding of the tracer to the kinase is detected using a Eu-labeled antibody. Simultaneous binding of both the tracer and antibody to the kinase gives rise to a FRET-signal. Binding of an inhibitor to the kinase competes for binding with the tracer, resulting in a loss of FRET.
(§2) The compounds of general formula (I) summarized in Table 1 were diluted from a 10 mM DMSO stock solution 1:10 in a total volume of 15 μL DMSO. This compound predilution was then serial diluted 1:3 over 8 steps in DMSO and briefly spun down. Each compound solution was now diluted 1:33.33 in kinase buffer (HEPES: 20 mM, pH: 8.0; MgCl2: 10 mM; DTT: 1 mM; Brij-35: 0.01%), mixed thoroughly and spun down. For every sample, 5 μL of the diluted compound were mixed with 5 μL tracer working solution (e.g. 60 nM tracer 236 in kinase buffer for CDK2/Cyclin A) and 5 μL CDK/Cyclin/Anti-GST-AB-working solution (e.g. 15 nM CDK2/Cyclin A, 1:250 dilution of Anti-GST-AB in kinase buffer) in a well of a small volume 384 well plate (Corning Incorporated, Corning, N.Y., USA; order no. 3673). […] For positive controls, in each well 5 μL of DMSO working solution (3% DMSO diluted in kinase buffer) was mixed with 5 μL CDK/Cyclin/Anti-GST-AB-working solution: (e.g. 15 nM CDK2/Cyclin A, 1:250 dilution of Anti-GST-AB in kinase buffer) and 5 μL Tracer working solution (e.g. 60 nM Tracer 236 in kinase buffer for CDK2/Cyclin A). Positive and negative controls were calculated from at least 8 different sample wells. The 384 well plates were mixed in a Teleshaker plate mixer (Beckman Coulter, Brea, Calif., USA) at 2000 rpm for 40 sec, and incubated for 1 h at room temperature before reading. The FRET signal was measured at 340 nm excitation, 665 nm and 615 nm emission (for the kinase tracer and LanthaScreen Eu-AB, respectively) with an Envision spectrophotometer (Perkin Elmer, Waltham, Mass., USA) with 50 μs delay and 300 μs integration time. Kd values were determined from the sigmoidal dose response curves with the software Quattro Workflow (Quattro GmbH, Munich, Germany).

CDK7/CyclinH/Mat1 [1] = biological target: T2, CDK7/CyclinH/Mat1 (Homo sapiens, UniProt P50613); test: LanthaScreen Eu Kinase Binding Assay, CDK7; settings: tracer 236, read-out: Affinity (Kd) CDK7
T2 construct: purchased Carna Biosciences
Protocol: as §1, §2

CDK9/Cyclin T1 = biological target: T3, CDK9/Cyclin T1 (Homo sapiens, UniProt P50750); test: LanthaScreen Eu Kinase Binding Assay, CDK9/Cyclin T1; settings: tracer 236, read-out: Affinity (Kd) CDK9/Cyclin T1
T3 construct: purchased Invitrogen
Protocol: as §1, §2

CDK8/Cyclin C = biological target: T4, CDK8/Cyclin C (Homo sapiens, UniProt P49336); test: LanthaScreen Eu Kinase Binding Assay, CDK8; settings: tracer 236, read-out: Affinity (Kd) CDK8
T4 construct: purchased Invitrogen
Protocol: as §1, §2

CDK2/CyclinA [2] = biological target: T5, CDK2/CyclinA (Homo sapiens, UniProt P24941); test: LanthaScreen Eu Kinase Binding Assay, CDK2; settings: tracer 236, read-out: Affinity (Kd) CDK2
T5 construct: purchased Proqinase
Protocol: as §1, §2

[3] = test system: RNA Polymerase II Ser2 phosphorylation (cellular CDK9 activity) in HCT-116 cells; test: RNA-Polymerase II Ser2 cellular phosphorylation assay; format: cell-based; settings: Homo sapiens, normalized with tubulin
Protocol: HCT-116 cells (DSMZ, Braunschweig, Germany) were maintained in Mc Coy's cell culture medium+glutamine (PAN Biotech GmbH, Aidenbach, Germany) supplemented with 10% fetal calf serum (PAA Laboratories GmbH, Pasching, Austria) and grown at 37° C., 5% CO2. For the cellular phosphorylation assay, cells were seeded with 2×10^5 cells/well/1 ml in 24-well plates (Greiner Bio—One, Frickenhausen, Germany; catalog #662160). The compounds of general formula (I) summarized in Table 6 were diluted from a 10 mM DMSO stock solution 1:10 in a total volume of 15 μL DMSO. After overnight incubation at 37° C./5% CO2, 1.5 μL of a compound diluted in DMSO was added to each sample well. Wells with cells and 0.15% DMSO in culture medium were used as positive controls, wells without cells and 0.15% DMSO in culture medium were used as negative controls. The cells were incubated with the compounds for 72 h at 37° C./5% CO2. Before lysis, cells were washed with phosphate buffered saline. Phosphorylation of RNA Polymerase II Ser2 and tubulin levels for normalization were analyzed afterwards with the Multi-Array technology (Meso Scale Discovery, Gaithersburg, Md., USA), a combination of antibody coupled electrochemiluminescence detection and patterned arrays. Manufacturer's instructions were followed and all solutions were purchased from Meso Scale Discovery. In brief, cells were lysed by 30 min incubation in CLB1 lysis buffer (Zeptosens, Witterswil, Switzerland; 60 μL per well), and supernatants were cleared by centrifugation. For analysis of RNA Polymerase II Ser2-phosphorylation, lysates were diluted 1:50 with Meso Scale Lysis Buffer supplemented with phosphatase- and protease-inhibitors, and 25 µL of each sample was pipetted in a well of a MSD Multi-Array 96-Well Plate Sector® Imager High Bind Plate (Meso Scale Discovery; catalog #L15XB-3/L11XB-3), and incubated for 2 h at room temperature. […] Meso Scale Tris Wash Buffer supplemented with 3% w/v Meso Scale Blocker A were added per well, then plates were sealed and incubated 1 h with vigorous shaking. Plates were washed with 1× Tris Wash Buffer (10× Meso Scale Wash Buffer diluted 1:10 in destilled water), 25 μL of antibody solution was added (CTD7 3E10 antibody from Helmholtz Zentrum Munich, Germany, diluted 1:100 in Meso Scale Tris Wash Buffer supplemented with 1% w/v Meso Scale Blocker A), and plates were washed three times in 1× Tris Wash Buffer. 25 μL of MSD® SULFO-TAG™ Goat-Anti-Rat-Antibody (Meso Scale Discovery, catalog #R^32AH-1, diluted 1:125 in Tris Wash Buffer with 1% (w/v) blocker A) were added per well, plates were sealed and incubated with vigorous shaking for 1 h at room temperature. Finally, plates were washed three times with Tris Wash Buffer, 150 μl 2× Read Buffer (Meso Scale Discovery) were added per well and plates were analyzed immediately in a Sector Imager from Meso Scale Discovery. For determination of tubulin protein levels, samples were analyzed with the protocol for RNA Polymerase II Ser2-phosphorylation, with an anti-tubulin antibody (rabbit; BIODESIGN International, catalog #T59840R, diluted 1:100) and a MSD® SULFO-TAG™ […] (Meso Scale Discovery, catalog #R^32AH-1, diluted 1:125). RNA Polymerase II Ser2 phosphorylation was normalized with tubulin protein levels, and EC50 values were calculated with the software XLFit (IDBS, Guildford, UK) from 2-fold dilution series comprising 6 concentrations in duplicates.

[4] = test system: NF-kappaB reporter gene activation in HEK293 cells; test: NF-kappaB reporter assay; format: cell-based; settings: Homo sapiens, 20 ng/ml TNF alpha, 5 h
Protocol: Cells were maintained in RPMI cell culture medium+glutamine (PAN Biotech GmbH, Aidenbach, Germany) supplemented with 10% fetal calf serum (PAA Laboratories GmbH, Pasching, Austria) and grown at 37° C., 5% CO2. HEK293 cells grown to 50% confluence were transfected with the Amaxa® Cell Line Nucleofector® Kit V (Lonza, Basel, Switzerland, catalog #VCA-1003). Transfections were performed according to manufacturer's optimized protocol for transfection of HEK293 cells. In brief, 2×10^5 cells were transfected with 5 μg highly purified plasmid DNA. Cells were transfected with a NF-kappa B reporter plasmid (pNFkBluc), pTALluc for control, or pMAXGFP for transfection control. After transfection, cells were taken up in 500 μL RPMI1640 cell culture medium, incubated for 1 h at 37° C., and 4.5 ml DMEM without phenol red were added per transfection. Transfected cells were seeded in 96 well plates (Greiner Bio-One, Frickenhausen, Germany, catalog #655098) with 100 μL cell suspension per well and incubated for 48 h. To each well, 100 μL DMEM with 2× concentrated compound diluted from 10 mM DMSO stocks, or 100 μL DMEM with 0.4% DMSO for control wells, was added. The compounds of general formula (I) summarized in Table 6 were used in this assay. Cells were stimulated with 20 ng/ml TNF alpha, and plates were incubated for 5 h at 37° C./5% CO2. Cell culture supernatants were removed to leave 100 μl medium per well, followed by addition of 100 μl Bright Glo luciferase assay reagent (Promega, Madison, Wis., USA, catalog #E2620), and shaking for 5 minutes in the dark. Luminescence was measured with a Victor Photospectrometer (Perkin Elmer, Waltham, Mass., USA). […], values were calculated with the software Excel Fit (IDBS, Guildford, UK) from 2-fold dilution series comprising at least 10 concentrations in duplicates.

CDK9 = biological target: T6, CDK9 (Homo sapiens, UniProt P50750); test: Lance Ultra KinaSelect Assay, CDK9; format: biochemical; settings: read-out: Inhibition (IC50) CDK9
T6 construct: purchased Invitrogen
Protocol: (§3) This protocol describes how the Lance Ultra KinaSelect Assay was performed to determine half maximal inhibitory concentration (IC50) of compounds of general formula (I) and CDK/Cyclin complexes. The principle behind this enzymatic assay is based upon the phosphorylation of the ULight-Peptide Substrat. It is detected by using a specific EU-labeled anti-phospho peptide antibody. The binding of the Eu-labeled anti-phospho peptide antibody to the phosphorylated U Light labeled peptide gives rise to a FRET-signal. Binding of an inhibitor to the kinase prevents phosphorylation of the ULight-MBP Substrat, resulting in a loss of FRET.
(§4) The compounds of general formula (I) summarized in Table 5 were diluted from a 10 mM DMSO stock solution 1:10 in a total volume of 15 μL DMSO. This compound predilution was then serial diluted 1:3 over 8 steps in DMSO and briefly spun down. Each compound solution was now diluted 1:20 in Enzymatic Buffer (HEPES: 50 mM, pH: 7.5; MgCl2: 10 mM; EGTA: 1 mM; DTT: 2 mM; Tween-20: 0.01%), mixed thoroughly and spun down. For every sample, 2 μL of the diluted compound were mixed with 6 μL CDK/Cyclin/Substrat solution and […] in a well of a small volume 384 well plate (Corning Incorporated, Corning, N.Y., USA; order no. 3673). […] For positive controls, in each well 2 μL of DMSO solution (1% final DMSO assay concentration) was mixed with 6 μL CDK/Cyclin/Substrat (appropriate final concentration see Table 3) and 2 μL Tracer ATP solution (appropriate final concentration see Table 3). Positive and negative controls were calculated from at least 8 different sample wells. The 384 well plates were mixed in a Teleshaker plate mixer (Beckman Coulter, Brea, Calif., USA) at 2000 rpm for 40 sec, and incubated for 1 h at room temperature. Before reading, 10 μL detection buffer (Lance Detection Buffer 1×; EDTA: […]; Eu-Anti-P-MBP: see Table 3) was added. The FRET signal was measured at 340 nm excitation, 665 nm and 615 nm emission (for the kinase tracer and LanthaScreen Eu-AB, respectively) with an Envision spectrophotometer (Perkin Elmer, Waltham, Mass., USA) with 50 μs delay and 300 μs integration time. IC50 values were determined from the sigmoidal dose response curves with the software Quattro Workflow (Quattro GmbH, Munich, Germany).

CDK2/CyclinA [5] = biological target: T5, CDK2/CyclinA; test: Lance Ultra KinaSelect Assay, CDK2; format: biochemical; settings: ATP 3 μM, read-out: Inhibition (IC50) CDK2
Protocol: as §3, §4

CDK7/CyclinH/Mat1 [6] = biological target: T2, CDK7/CyclinH/Mat1; test: Lance Ultra KinaSelect Assay, CDK7; format: biochemical; settings: ATP 25 μM, read-out: Inhibition (IC50) CDK7
Protocol: as §3, §4

T4 sequence (P49336 whole entry): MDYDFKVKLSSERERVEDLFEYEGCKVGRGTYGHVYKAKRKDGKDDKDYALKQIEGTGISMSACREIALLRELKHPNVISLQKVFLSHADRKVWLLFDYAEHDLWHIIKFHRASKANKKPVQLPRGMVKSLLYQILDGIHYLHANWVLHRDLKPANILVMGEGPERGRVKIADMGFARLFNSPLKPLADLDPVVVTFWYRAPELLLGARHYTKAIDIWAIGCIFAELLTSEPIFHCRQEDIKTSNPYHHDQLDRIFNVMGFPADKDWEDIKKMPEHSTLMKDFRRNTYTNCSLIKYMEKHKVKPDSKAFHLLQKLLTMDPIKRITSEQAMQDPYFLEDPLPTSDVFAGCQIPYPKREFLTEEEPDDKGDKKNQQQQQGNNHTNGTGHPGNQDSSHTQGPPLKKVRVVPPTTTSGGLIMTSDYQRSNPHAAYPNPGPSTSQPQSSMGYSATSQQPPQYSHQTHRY
T4 sequence (P24863 whole entry partner): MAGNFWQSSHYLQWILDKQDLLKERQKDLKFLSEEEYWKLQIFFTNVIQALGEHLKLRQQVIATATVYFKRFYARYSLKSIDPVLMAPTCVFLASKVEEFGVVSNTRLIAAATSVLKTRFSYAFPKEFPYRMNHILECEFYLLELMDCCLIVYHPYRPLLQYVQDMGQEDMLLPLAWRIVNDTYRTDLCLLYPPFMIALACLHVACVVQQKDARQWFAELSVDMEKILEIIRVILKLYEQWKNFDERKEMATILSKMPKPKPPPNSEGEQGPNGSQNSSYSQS
T2 sequence (P50613 whole entry): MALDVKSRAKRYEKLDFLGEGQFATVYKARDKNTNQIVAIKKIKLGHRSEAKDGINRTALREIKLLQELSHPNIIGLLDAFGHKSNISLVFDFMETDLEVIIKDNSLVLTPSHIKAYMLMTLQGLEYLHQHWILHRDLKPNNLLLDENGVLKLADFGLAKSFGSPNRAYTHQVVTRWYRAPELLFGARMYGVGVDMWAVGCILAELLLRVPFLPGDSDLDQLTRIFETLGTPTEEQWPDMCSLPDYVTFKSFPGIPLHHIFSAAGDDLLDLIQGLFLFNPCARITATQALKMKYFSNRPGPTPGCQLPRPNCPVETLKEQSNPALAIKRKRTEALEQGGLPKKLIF
T2 sequence (P51946 whole entry partner): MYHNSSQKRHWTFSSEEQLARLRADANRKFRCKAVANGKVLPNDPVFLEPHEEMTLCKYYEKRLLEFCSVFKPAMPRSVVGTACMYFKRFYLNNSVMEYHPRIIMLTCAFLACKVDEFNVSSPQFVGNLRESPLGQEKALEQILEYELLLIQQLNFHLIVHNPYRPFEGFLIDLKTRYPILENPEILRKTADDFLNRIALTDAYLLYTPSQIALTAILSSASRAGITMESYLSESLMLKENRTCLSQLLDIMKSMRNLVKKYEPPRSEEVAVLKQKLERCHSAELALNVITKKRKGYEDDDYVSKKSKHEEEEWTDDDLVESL
T2 sequence (P51948 whole entry partner): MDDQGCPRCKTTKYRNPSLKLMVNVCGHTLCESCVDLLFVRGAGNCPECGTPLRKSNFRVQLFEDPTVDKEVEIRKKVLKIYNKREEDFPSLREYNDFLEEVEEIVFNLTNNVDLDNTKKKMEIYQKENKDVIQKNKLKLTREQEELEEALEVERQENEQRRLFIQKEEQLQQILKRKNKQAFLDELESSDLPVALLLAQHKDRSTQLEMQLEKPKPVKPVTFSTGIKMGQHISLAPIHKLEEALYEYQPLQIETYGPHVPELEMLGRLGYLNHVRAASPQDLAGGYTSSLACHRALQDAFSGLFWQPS
T3 sequence (P50750 whole entry): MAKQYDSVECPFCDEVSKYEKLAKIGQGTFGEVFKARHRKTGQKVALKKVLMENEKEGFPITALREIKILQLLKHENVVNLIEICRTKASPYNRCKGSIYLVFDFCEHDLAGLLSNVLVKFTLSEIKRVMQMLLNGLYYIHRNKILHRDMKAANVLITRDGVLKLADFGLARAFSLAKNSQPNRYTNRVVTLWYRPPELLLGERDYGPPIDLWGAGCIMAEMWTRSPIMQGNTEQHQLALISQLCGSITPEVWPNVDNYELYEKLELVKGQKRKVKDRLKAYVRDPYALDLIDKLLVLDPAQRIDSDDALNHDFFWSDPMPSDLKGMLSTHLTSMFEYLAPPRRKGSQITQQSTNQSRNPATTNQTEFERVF
T3 sequence (O60563 whole entry partner): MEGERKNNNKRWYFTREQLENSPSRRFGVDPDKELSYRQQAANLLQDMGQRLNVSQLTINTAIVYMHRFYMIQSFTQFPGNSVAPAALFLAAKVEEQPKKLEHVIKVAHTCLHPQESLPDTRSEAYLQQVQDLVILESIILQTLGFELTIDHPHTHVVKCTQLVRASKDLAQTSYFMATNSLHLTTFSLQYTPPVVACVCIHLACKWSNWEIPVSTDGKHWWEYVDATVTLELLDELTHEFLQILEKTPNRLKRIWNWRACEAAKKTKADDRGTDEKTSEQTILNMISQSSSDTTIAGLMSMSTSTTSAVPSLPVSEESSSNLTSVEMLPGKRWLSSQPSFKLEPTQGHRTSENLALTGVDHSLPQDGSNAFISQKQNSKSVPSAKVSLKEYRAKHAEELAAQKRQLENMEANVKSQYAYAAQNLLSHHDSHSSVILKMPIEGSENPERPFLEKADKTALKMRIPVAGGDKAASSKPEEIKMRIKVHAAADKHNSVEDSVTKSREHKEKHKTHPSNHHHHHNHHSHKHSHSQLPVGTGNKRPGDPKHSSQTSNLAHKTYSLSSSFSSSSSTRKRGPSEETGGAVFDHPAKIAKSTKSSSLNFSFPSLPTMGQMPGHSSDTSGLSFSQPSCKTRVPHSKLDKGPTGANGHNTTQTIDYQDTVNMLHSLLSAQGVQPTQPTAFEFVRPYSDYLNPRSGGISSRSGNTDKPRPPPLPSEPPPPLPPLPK
T1 sequence (P50750 whole entry): as the sequence (P50750 whole entry) above
T1 sequence (O75909 whole entry partner): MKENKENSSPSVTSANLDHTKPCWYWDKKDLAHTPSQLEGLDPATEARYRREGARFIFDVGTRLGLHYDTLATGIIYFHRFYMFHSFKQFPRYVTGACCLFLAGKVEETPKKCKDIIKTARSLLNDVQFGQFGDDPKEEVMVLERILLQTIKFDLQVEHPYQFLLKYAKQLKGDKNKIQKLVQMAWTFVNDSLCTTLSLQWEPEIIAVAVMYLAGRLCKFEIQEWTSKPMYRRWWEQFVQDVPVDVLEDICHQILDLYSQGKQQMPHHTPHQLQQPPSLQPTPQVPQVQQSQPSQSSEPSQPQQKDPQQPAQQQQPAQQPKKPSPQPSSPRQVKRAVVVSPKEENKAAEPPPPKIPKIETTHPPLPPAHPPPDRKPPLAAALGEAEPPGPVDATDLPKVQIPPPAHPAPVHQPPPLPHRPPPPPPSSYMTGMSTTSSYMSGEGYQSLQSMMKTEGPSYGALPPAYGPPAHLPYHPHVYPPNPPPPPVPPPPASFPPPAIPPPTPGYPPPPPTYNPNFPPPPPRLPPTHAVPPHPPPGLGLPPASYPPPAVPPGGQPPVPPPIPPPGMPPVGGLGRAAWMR
T6 sequence (P50750 whole entry): as the sequence (P50750 whole entry) above

Row | SMILES | Kd (CDK9/Cyclin K) [nM] | Kd (CDK7/CyclinH/Mat1 [1]) [nM] | Kd (CDK9/Cyclin T1) [nM] | Kd (CDK8/Cyclin C) [nM] | Kd (CDK2/CyclinA [2]) [nM] | IC50 (CDK9) [nM] | IC50 (CDK2/CyclinA [5]) [nM] | IC50 (CDK7/CyclinH/Mat1 [6]) [nM] | IC50 [3] [nM] | IC50 [4] [nM]
1 | COc1ccc(Cl)cc1-c1ncnc(Nc2cccc(CS(N)(=O)=O)c2)n1 [Compound B7, 3-[(4-(5-Chloro-2-methoxyphenyl)-1,3,5-triazin-2-yl)amino]benzenemethanesulfonamide] | 101 | > 10000 | 55 | > 10000 | – | – | – | – | – | –
2 | NS(=O)(=O)Cc1cccc(Nc2ncnc(-c3cccc4c3OCO4)n2)c1 [Compound B15, 3-[(4-(1,3-Benzodioxol-4-yl)-1,3,5-triazin-2-yl)amino]benzenemethanesulfonamide] | 2460 | > 10000 | 141 | > 10000 | 6460 | – | – | – | – | –
3 | COc1ccncc1-c1ncnc(Nc2cccc(CS(N)(=O)=O)c2)n1 [Compound B18, 3-[(4-(4-Methoxypyridin-3-yl)-1,3,5-triazin-2-yl)amino]benzenemethanesulfonamide] | 302 | > 10000 | 104 | 1760 | – | – | – | – | – | –
4 | Nc1ccc(-c2ncnc(Nc3cccc(CS(N)(=O)=O)c3)n2)cn1 [Compound B23, 3-[(4-(6-Aminopyridin-3-yl)-1,3,5-triazin-2-yl)amino]benzenemethanesulfonamide] | 26.2 | > 10000 | 99 | – | – | – | – | – | > 30000 | > 30000

Now from value to compound, other results behind:

Row | Kd (CDK9/Cyclin K) [nM] | Kd (CDK7/CyclinH/Mat1 [1]) [nM] | Kd (CDK9/Cyclin T1) [nM] | Kd (CDK8/Cyclin C) [nM] | Kd (CDK2/CyclinA [2]) [nM] | IC50 (CDK9) [nM] | IC50 (CDK2/CyclinA [5]) [nM] | IC50 (CDK7/CyclinH/Mat1 [6]) [nM] | SMILES | IC50 [3] [nM] | IC50 [4] [nM]
5 | – | > 10000 | 6.9 | – | 851 | 24.7 | 1770 | > 10000 | COc1ccccc1-c1ncnc(Nc2cccc(S(C)(=O)=O)c2)n1 [Compound S1, 4-(2-Methoxyphenyl)-N-(3-(methylsulfonyl)phenyl)-1,3,5-triazin-2-amine] | – | –
6 | – | > 10000 | 43.7 | – | 237 | 190 | 259 | > 10000 | COc1ccccc1-c1ncnc(Nc2ccc(CS(N)(=O)=O)cc2)n1 [Compound T1, 4-[(4-(2-Methoxyphenyl)-1,3,5-triazin-2-yl)amino]benzenemethanesulfonamide] | – | –
